Reference: paper PMC10705919 (International Journal of Molecular Sciences, 2023)

Biological target: T1, TRPV4 (Canis lupus, UniProt A0A8I3PAV3)
T1 construct: endogenous channel in MDCK cells
Assay: whole-cell patch clamp, block of GSK1016790A-evoked currents in MDCK cells
Type: cell-based

T1 sequence (A0A8I3PAV3 1-828): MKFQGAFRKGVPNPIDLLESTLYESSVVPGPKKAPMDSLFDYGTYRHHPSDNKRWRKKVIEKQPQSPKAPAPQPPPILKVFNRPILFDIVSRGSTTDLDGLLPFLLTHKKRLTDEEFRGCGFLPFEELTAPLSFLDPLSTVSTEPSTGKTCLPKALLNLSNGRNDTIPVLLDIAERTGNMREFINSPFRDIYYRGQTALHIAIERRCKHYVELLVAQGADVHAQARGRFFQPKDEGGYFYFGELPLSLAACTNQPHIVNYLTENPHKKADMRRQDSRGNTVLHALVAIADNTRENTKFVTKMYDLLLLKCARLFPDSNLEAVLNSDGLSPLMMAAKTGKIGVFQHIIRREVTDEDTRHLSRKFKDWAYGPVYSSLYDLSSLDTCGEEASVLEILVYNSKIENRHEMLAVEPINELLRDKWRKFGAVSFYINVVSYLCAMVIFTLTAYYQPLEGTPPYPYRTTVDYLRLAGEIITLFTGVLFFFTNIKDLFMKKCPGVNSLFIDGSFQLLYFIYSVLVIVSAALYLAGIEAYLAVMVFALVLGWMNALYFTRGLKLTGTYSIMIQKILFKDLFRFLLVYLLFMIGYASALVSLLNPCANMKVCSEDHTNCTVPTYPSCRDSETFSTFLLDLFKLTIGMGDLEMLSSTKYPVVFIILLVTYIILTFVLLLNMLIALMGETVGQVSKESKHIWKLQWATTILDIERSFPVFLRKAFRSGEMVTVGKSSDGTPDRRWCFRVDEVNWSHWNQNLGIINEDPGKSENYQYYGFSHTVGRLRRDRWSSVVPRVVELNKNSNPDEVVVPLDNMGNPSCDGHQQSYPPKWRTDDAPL

In the case of `Cc1c(C(=O)Nc2cccc(C(F)(F)F)c2)cc(-c2ccccc2)n1CCCN1CCOCC1` [HC, HC-067047], the “whole-cell patch clamp, block of GSK1016790A-evoked currents in MDCK cells” value is reported as “the addition of HC significantly decreases the transient enhancement of dIm induced by GSK alone”.
